How the values were obtained:
purified HLA DRB1*0301 = molecular target: T1, purified HLA DRB1*0301 (Homo sapiens, UniProt P01903+P01911, A100K/A102G/A103R/A169T/F55Y/I96L/K41T/L162R/M171V/P40S/Q125H/Q178H/Q39Y/R42S/S66N/T106N/T262R/W38E/Y61H); test: HLA-DR radioligand binding inhibition assay, DRB1*0301; conditions: IC50 nM purified HLA DRB1 *0301, purified HLA DRB1*0301
T1 construct: purified from EBV transformed homozygous cell lines or single MHC allele transfected 721.221, C1R, or fibroblast lines; made in house
Method: (§1) Instead, wells of an opaque white 96-well Optiplate (Packard) are coated with 3 μg (100 μl@ 30 μg/ml) of HLA-specific antibody (Ab) that “capture” complexes of radiolabeled MHC and unlabeled peptide transferred from the molecular binding assay plate in 100 μl of 0.05% NP40/PBS. After a 3-hour incubation period, the supernatant is decanted and scintillation fluid (Microscint 20) added. Captured complexes are then measured on a microplate scintillation and luminescence counter (TopCount NXTTM; Packard).
(§2) HLA-DR purification. Fifteen distinct HLA-DR molecules were used in quantitative assays to measure the binding of peptides to solubilized HLA-DR molecules. […] Briefly, columns of inactivated Sepharose CL4B and Protein A Sepharose were used as pre-columns. HLA-DR molecules were captured by passage of lysates over LB3.1 monoclonal antibody (anti-HLA-DRA) columns. Antibody columns were washed with 10 mM Tris-HCL, pH8.0 with 1% (v/v) NP-40, followed by PBS containing 0.4% (w/v) n-octylglucoside.
(§3) Briefly, 1-10 nM of radiolabeled peptide was co-incubated for 2 days at either room temperature or 37° C. with 1 μM to 1 nM purified HLA-DR molecules in the presence of a cocktail of protease inhibitors. Assays were performed at various pH conditions, ranging from pH 4 to pH 7. […] After incubation, the percentage of HLA-DR-bound radioactivity is determined by capturing HLA-DR/peptide complexes on Optiplates (Packard Instruments, Meriden, Conn.) coated with the LB3.1 antibody and determining bound counts per minute using the TopCount microscintillation counter (Packard Instruments).

purified HLA DRB5*0101 = molecular target: T2, purified HLA DRB5*0101 (Homo sapiens, UniProt P01903+Q30154); test: HLA-DR radioligand binding inhibition assay, DRB5*0101; conditions: IC50 nM purified HLA DRB5 *0101, purified HLA DRB5*0101
T2 construct: purified from EBV transformed homozygous cell lines or single MHC allele transfected 721.221, C1R, or fibroblast lines; made in house
How it was run: (§4)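 First, HLA-DR was purified from lysates on LB3.1 columns. Then 1 μM to 1 nM protein was incubated 2 days with 1-10 nM radiolabeled peptide at pH 4 to 7. Finally, complexes were captured for 3 hours and bound cpm determined.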

purified HLA DRB1*0401 = molecular target: T3, purified HLA DRB1*0401 (Homo sapiens, UniProt P01903+P01911, A100K/A169T/F76Y/I96L/K127E/L162R/M171V/N62H/P40V/Q125Y/R42H/S133A/S149N/S66Y/V115G/V209L/W38E); test: HLA-DR radioligand binding inhibition assay, DRB1*0401; conditions: IC50 nM purified HLA DRB1 *0401, purified HLA DRB1*0401
T3 construct: purified from EBV transformed homozygous cell lines or single MHC allele transfected 721.221, C1R, or fibroblast lines; made in house
How it was run: as §4

purified HLA DRB1*0404 = molecular target: T4, purified HLA DRB1*0404 (Homo sapiens, UniProt P01903+P01911, A100R/A169T/F76Y/I96L/K127E/L162R/M171V/N62H/P40V/Q125Y/R42H/S133A/S149N/S66Y/V209L/W38E); test: HLA-DR radioligand binding inhibition assay, DRB1*0404; conditions: IC50 nM purified HLA DRB1 *0404, purified HLA DRB1*0404
T4 construct: purified from EBV transformed homozygous cell lines or single MHC allele transfected 721.221, C1R, or fibroblast lines; made in house
How it was run: as §4

purified HLA DRB1*0101 = molecular target: T5, purified HLA DRB1*0101 (Homo sapiens, UniProt P01903+P01911, A100R/D57E/F55L/F60I/F76Y/I96L/L162R/M171V/P40L/Q125E/R42F/V115G/Y59C); test: HLA-DR radioligand binding inhibition assay, DRB1*0101; conditions: IC50 nM purified HLA DRB1 *0101, purified HLA DRB1*0101
T5 construct: purified from EBV transformed homozygous cell lines or single MHC allele transfected 721.221, C1R, or fibroblast lines; made in house
How it was run: as §4

purified HLA DRB1*1101 = molecular target: T6, purified HLA DRB1*1101 (Homo sapiens, UniProt P01903+P01911, A100R/A169T/A87E/I96F/K41T/L162R/M171V/P40S/Q125H/Q178H/Q39Y/Q99D/R42S/S66Y/T262R/V115G/W38E); test: HLA-DR radioligand binding inhibition assay, DRB1*1101; conditions: IC50 nM purified HLA DRB1 *1101, purified HLA DRB1*1101
T6 construct: purified from EBV transformed homozygous cell lines or single MHC allele transfected 721.221, C1R, or fibroblast lines; made in house
How it was run: as §4

purified HLA DRB1*0701 = molecular target: T7, purified HLA DRB1*0701 (Homo sapiens, UniProt P01903+P01911, A100R/A102G/A103Q/D57E/D86V/E43K/F76Y/K127E/L162R/M171V/P40G/Q125H/Q99D/R33Q/R42Y/R54Q/S133A/S66F/T210M/V115G/Y107V/Y59L/Y89S); test: HLA-DR radioligand binding inhibition assay, DRB1*0701; conditions: IC50 nM purified HLA DRB1 *0701, purified HLA DRB1*0701
T7 construct: purified from EBV transformed homozygous cell lines or single MHC allele transfected 721.221, C1R, or fibroblast lines; made in house
How it was run: as §4

purified HLA DRB1*0802 = molecular target: T8, purified HLA DRB1*0802 (Homo sapiens, UniProt P01903+P01911, A100R/A103L/A169T/F76Y/H45Y/I96F/K41T/L162R/M171V/P40S/Q125H/Q178H/Q39Y/Q99D/R218S/R42G/S66Y/V115G/W38E); test: HLA-DR radioligand binding inhibition assay, DRB1*0802; conditions: IC50 nM purified HLA DRB1 *0802, purified HLA DRB1*0802
T8 construct: purified from EBV transformed homozygous cell lines or single MHC allele transfected 721.221, C1R, or fibroblast lines; made in house
Method: as §1
as §2, with “n-octylglucoside. […] The pH was reduced to 8.0 and the eluates were concentrated by centrifugation in Centriprep 30 concentrators at 2000 rpm (Amicon, Beverly, Mass.).” for “n-octylglucoside.”
as §3, with “Instruments). […] Competitor peptides are tested in 2-4 complete, independent experiments, at concentrations ranging from […].” for “Instruments).”

purified HLA DRB1*0901 = molecular target: T9, purified HLA DRB1*0901 (Homo sapiens, UniProt P01903+P01911, A100R/A103E/D57H/D86V/F55Y/F60I/F76Y/I96F/K127E/L162R/M171V/P40D/Q125H/Q99R/R33Q/R42F/S133A/S66N/T210M/V115G/W38K/Y107V/Y59G/Y89S); test: HLA-DR radioligand binding inhibition assay, DRB1*0901; conditions: IC50 nM purified HLA DRB1 *0901, purified HLA DRB1*0901
T9 construct: purified from EBV transformed homozygous cell lines or single MHC allele transfected 721.221, C1R, or fibroblast lines; made in house
Method: as §1, §2, §3

purified HLA DRB1*1201 = molecular target: T10, purified HLA DRB1*1201 (Homo sapiens, UniProt P01903+P01911, A100R/A169T/D57E/D86V/F55L/H45Y/K41T/L162R/M171V/P40S/Q125H/Q178H/Q39Y/Q99D/R42G/S66L/T262R/V114A/V67L/W38E/Y59H/Y61H/Y89S); test: HLA-DR radioligand binding inhibition assay, DRB1*1201
T10 construct: purified from EBV transformed homozygous cell lines or single MHC allele transfected 721.221, C1R, or fibroblast lines; made in house
Method: as §1
as §2, with “n-octylglucoside. […] The pH was reduced to 8.0 and the eluates were concentrated by centrifugation in Centriprep 30 concentrators at 2000 rpm (Amicon, Beverly, Mass.).” for “n-octylglucoside.”
as §3, with “Instruments). […] Competitor peptides are tested in 2-4 complete, independent experiments, at concentrations ranging from […].” for “Instruments).”

purified HLA DRB1*0405 = molecular target: T11, purified HLA DRB1*0405 (Homo sapiens, UniProt P01903+P01911, A100R/A169T/D86S/F76Y/I96L/K127E/L162R/M171V/N62H/P40V/Q125Y/R42H/S133A/S149N/S66Y/V115G/V209L/W38E); test: HLA-DR radioligand binding inhibition assay, DRB1*0405; conditions: IC50 nM purified HLA DRB1 *0405, purified HLA DRB1*0405
T11 construct: purified from EBV transformed homozygous cell lines or single MHC allele transfected 721.221, C1R, or fibroblast lines; made in house
How it was run: as §4

purified HLA DRB4*0101 = molecular target: T12, purified HLA DRB4*0101 (Homo sapiens, UniProt P01903+P13762, G164S); test: HLA-DR radioligand binding inhibition assay, DRB4*0101; conditions: IC50 nM purified HLA DRB4 *0101, purified HLA DRB4*0101
T12 construct: purified from EBV transformed homozygous cell lines or single MHC allele transfected 721.221, C1R, or fibroblast lines; made in house
How it was run: as §4

purified HLA DRB1*1501 = molecular target: T13, purified HLA DRB1*1501 (Homo sapiens, UniProt P01903+P01911); test: HLA-DR radioligand binding inhibition assay, DRB1*1501
T13 construct: purified from EBV transformed homozygous cell lines or single MHC allele transfected 721.221, C1R, or fibroblast lines; made in house
How it was run: as §4

purified HLA DRB3*0101 = molecular target: T14, purified HLA DRB3*0101 (Homo sapiens, UniProt P01903+P79483); test: HLA-DR radioligand binding inhibition assay, DRB3*0101; conditions: IC50 nM purified HLA DRB3 *0101, purified HLA DRB3*0101
T14 construct: purified from EBV transformed homozygous cell lines or single MHC allele transfected 721.221, C1R, or fibroblast lines; made in house
Method: as §1
as §2, with “n-octylglucoside. […] The pH was reduced to 8.0 and the eluates were concentrated by centrifugation in Centriprep 30 concentrators at 2000 rpm (Amicon, Beverly, Mass.).” for “n-octylglucoside.”
as §3, with “Instruments). […] Competitor peptides are tested in 2-4 complete, independent experiments, at concentrations ranging from […].” for “Instruments).”

purified HLA DRB1*1302 = molecular target: T15, purified HLA DRB1*1302 (Homo sapiens, UniProt P01903+P01911, A100E/A169T/K41T/L162R/M171V/P40S/Q125H/Q178H/Q39Y/Q99D/R42S/S66N/T262R/V115G/W38E/Y61H); test: HLA-DR radioligand binding inhibition assay, DRB1*1302
T15 construct: purified from EBV transformed homozygous cell lines or single MHC allele transfected 721.221, C1R, or fibroblast lines; made in house
How it was run: as §4

T6 sequence (P01903 26-254, other chains not shown): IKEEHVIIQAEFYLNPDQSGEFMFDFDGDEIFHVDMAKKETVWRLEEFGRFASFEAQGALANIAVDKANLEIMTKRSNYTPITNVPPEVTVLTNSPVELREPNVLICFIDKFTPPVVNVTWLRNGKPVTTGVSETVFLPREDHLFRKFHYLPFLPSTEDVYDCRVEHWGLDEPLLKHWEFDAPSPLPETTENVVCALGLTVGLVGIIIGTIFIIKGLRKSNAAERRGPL

IC50 (purified HLA DRB1*0301)	IC50 (purified HLA DRB5*0101)	IC50 (purified HLA DRB1*0401)	IC50 (purified HLA DRB1*0404)	IC50 (purified HLA DRB1*0101)	IC50 (purified HLA DRB1*1101)	IC50 (purified HLA DRB1*0701)	IC50 (purified HLA DRB1*0802)	IC50 (purified HLA DRB1*0901)	IC50 (purified HLA DRB1*1201)	IC50 (purified HLA DRB1*0405)	IC50 (purified HLA DRB4*0101)	IC50 (purified HLA DRB1*1501)	IC50 (purified HLA DRB3*0101)	IC50 (purified HLA DRB1*1302)	SMILES
31 nM	> 20000 nM	1640 nM	2910 nM	4030 nM	> 20000 nM	16800 nM	> 20000 nM	> 20000 nM	16900 nM	> 20000 nM	–	–	–	–	CC[C@H](C)[C@H](NC(=O)[C@@H](NC(=O)[C@@H]1CCCN1C(=O)[C@H](C)N)[C@@H](C)O)C(=O)N[C@@H](CCCNC(=N)N)C(=O)NCC(=O)N[C@@H](CC(=O)O)C(=O)N1CCC[C@H]1C(=O)N[C@@H](CCC(=O)O)C(=O)N[C@@H](CS)C(=O)N[C@@H](Cc1c[nH]cn1)C(=O)N[C@@H](CC(C)C)C(=O)N[C@@H](Cc1ccccc1)C(=O)N[C@@H](Cc1ccc(O)cc1)C(=O)N[C@@H](CC(N)=O)C(=O)O [Peptide 9019.0022]
–	> 20000 nM	–	–	–	> 20000 nM	> 20000 nM	> 20000 nM	> 20000 nM	–	> 20000 nM	5310 nM	> 20000 nM	–	–	CC(C)C[C@H](NC(=O)[C@H](Cc1c[nH]cn1)NC(=O)[C@@H](N)CS)C(=O)N[C@@H](Cc1ccccc1)C(=O)N[C@@H](Cc1ccc(O)cc1)C(=O)N[C@@H](CC(N)=O)C(=O)N[C@@H](CCC(=O)O)C(=O)N[C@@H](CCC(N)=O)C(=O)N[C@@H](CCC(N)=O)C(=O)N[C@@H](CCC(=O)O)C(=O)N[C@@H](C)C(=O)N[C@@H](CCCNC(=N)N)C(=O)NCC(=O)N[C@H](C(=O)N[C@@H](Cc1c[nH]cn1)C(=O)O)C(C)C [Peptide 9019.0023]
64 nM	4620 nM	95 nM	–	–	> 20000 nM	1100 nM	–	15900 nM	> 20000 nM	3170 nM	33 nM	25 nM	> 20000 nM	879 nM	CC[C@H](C)[C@H](NC(=O)[C@H](CS)NC(=O)[C@H](CC(C)C)NC(=O)[C@@H](N)CCCCN)C(=O)N[C@@H](Cc1ccc(O)cc1)C(=O)N[C@H](C(=O)N[C@@H](CC(=O)O)C(=O)N[C@@H](CC(N)=O)C(=O)N[C@@H](CO)C(=O)N[C@H](C(=O)N[C@@H](CCCNC(=N)N)C(=O)N1CCC[C@H]1C(=O)N[C@@H](CCC(=O)O)C(=O)N[C@@H](CCC(=O)O)C(=O)N[C@@H](CC(C)C)C(=O)O)[C@@H](C)CC)[C@@H](C)O [Peptide 9019.0159]

From patent publication US20140377340A1, “HLA-DR BINDING PEPTIDES AND THEIR USES” (priority 2007, published 2014)
